This test concerns hamsters fed a high cholesterol diet. Put plainly: Measurement of lipid lowering effect in hamsters fed a high cholesterol diet. The format is in vivo, Male Golden Syrian hamsters. To be noted: Mesocricetus auratus, po, 168 h, gavage once daily, 7 days. As for the experimental part:
Male Golden Syrian hamsters are divided into groups each consisting of 6 animals and fed a controlled high cholesterol diet (CE-2 containing 0.5% cholesterol; CLEA Japan, Inc.) for 28 days at most. From the start of feeding of the high cholesterol diet, the test compounds are administered by gavage once daily. For the administration, 0.2 mL of corn oil alone per 100 g (control group) or a solution (or suspension) of the test compound in corn oil at a dose of 0.01 to 10 mg/kg was given. At the same time, a group fed with a normal diet during the same study period is handled as a normal group. 4 hours after the last administration, whole blood is collected from the abdominal aorta under light anesthesia with ether and serum is separated from the blood. Further, livers are harvested, wet liver weights are measured, and part (about 0.5 g) of the harvested livers are extracted and weighed. 2-propanol in an amount 4 times the weight of the extracted livers are added, the resulted mixtures are homogenized, and the centrifuged supernatant are recovered and used as liver-derived samples.
Serum and liver TC concentrations are determined by an enzyme method using L-type Wako CHO•H (Wako Pure Chemical Industries Ltd.) or Cholestest CHO (Daiichi Pure Chemicals Co., Ltd.). Serum TG concentrations are determined by an enzyme method using L-type Wako TG•H (Wako Pure Chemical Industries Ltd.) or Autosera S TG-N (Daiichi Pure Chemicals Co., Ltd.) and a free glycerine elimination method. LDL-C concentrations are determined by a direct method using L-type Wako LDL-C•M (Wako Pure Chemical Industries Ltd.) or Cholestest LDL (Daiichi Pure Chemicals Co., Ltd.). Human serum was commonly used as a sample for the calibration curve for determinations of serum and liver TC concentrations, serum TG concentration, and serum LDL-C concentration. The effect of the test compound is shown by a suppression rate (%) of an increase in serum TC concentration due to feeding of the high cholesterol diet, a serum TG lowering rate (%), a suppression rate (%) of an increase in serum LDL-C concentration due to feeding of the high cholesterol diet, and a suppression rate (%) of an increase in liver TC concentration due to feeding of the high cholesterol diet calculated in accordance with the following equations.
In the Equation 2, A is the control group, B is the test compound group, and C is the normal group.
In the Equation 3, A is the control group, B is the test compound group, and C is the normal group.
In the Equation 4, A is the control group, B is the test compound group, and C is the normal group.
In the Equation 5, A is the control group, and B is the test compound group.
The following results were obtained from the study by this method on the effects of lowering serum TC, LDL-C, and TG, and liver TC in the hamsters fed with a high cholesterol diet which were given the test compounds for 7 days.
The compounds in which pyridyl of compound of example 51 and 55 was exchanged for phenyl, were used as comparative compound 1 and 2, respectively. In the same method as Example 112, the suppression rate (%) of an increase in serum TC concentration of comparative compound 1 and 2 were calculated.

Setting [1] is: read-out: serum LDL-C lowering effect (suppression rate of an increase in serum LDL-C concentration).
The mark [2] stands for this setting: read-out: serum TC lowering effect (suppression rate of an increase in serum TC concentration).
Where [3] appears, read: read-out: liver TC lowering effect (suppression rate of an increase in liver TC concentration).
Where [4] appears, read: read-out: serum TG lowering effect (serum TG lowering rate).

Where two headings read alike, the source gives them in different places. A value given as a limit tells only on which side of the number the result lay.

`O=C1[C@H](SC[C@H](O)c2ccc3c(c2)OCO3)[C@@H](c2ccc(O)cc2)N1c1ccc(-c2cccnc2)cc1` [Example 33, (3R,4R)-3-[(2R)-2-(2H-benzo[3,4-d]1,3-dioxolen-5-yl)-2-hydroxyethylthio]-4-(4-hydroxyphenyl)-1-[4-(pyridin-3-yl)phenyl]azetidin-2-one]: the inhibition in vivo at 0.1 mg/kg under setting [1] was at least 50% and the inhibition in vivo at 0.1 mg/kg under setting [2] is at least 50%.

Turning to `O=C1[C@H](SC[C@H](O)c2ccc(F)cc2)[C@@H](c2ccc(O)cc2O)N1c1ccc(-c2cccnc2)cc1` [Example 2, (3R,4R)-3-[(2R)-2-(4-fluorophenyl)-2-hydroxyethylthio]-4-(2,4-dihydroxyphenyl)-1-[4-(pyridin-3-yl)phenyl]azetidin-2-one], the inhibition in vivo at 0.01 mg/kg runs as follows: under setting [3], at least 30%; under setting [2], at least 30%.

Turning to `COc1ccc([C@@H](O)CS[C@H]2C(=O)N(c3ccc(-c4cccnc4)cc3)[C@@H]2c2ccc(O)cc2)cc1` [Example 84, (3R,4R)-3-[(2R)-2-hydroxy-2-(4-methoxyphenyl)ethylthio]-4-(4-hydroxyphenyl)-1-[4-(pyridin-3-yl)phenyl]azetidin-2-one], the inhibition in vivo at 0.1 mg/kg under setting [3] was at least 50%.

In the case of `N#Cc1cncc(-c2ccc(N3C(=O)[C@H](SC[C@H](O)c4ccc(F)cc4)[C@H]3c3ccc(O)cc3)cc2)c1` [Example 18, 5-(4-{(3R,4R)-3-[(2R)-2-(4-fluorophenyl)-2-hydroxyethylthio]-4-(4-hydroxyphenyl)-2-oxoazetidinyl}phenyl)pyridine-3-carbonitrile], the inhibition in vivo at 0.01 mg/kg under setting [2] was at least 30%. In addition, the inhibition in vivo at 0.1 mg/kg under setting [1] was at least 50% and the inhibition in vivo at 0.1 mg/kg under setting [4] was at least 20%.

Regarding `O=C1[C@H](SC[C@H](O)c2ccc(Cl)cc2)[C@@H](c2ccc(O)cc2O)N1c1ccc(-c2cncc(C(F)(F)F)c2)cc1` [Example 75, (3R,4R)-3-[(2R)-2-(4-chlorophenyl)-2-hydroxyethylthio]-4-(2,4-dihydroxyphenyl)-1-[4-(5-trifluoromethylpyridin-3-yl)phenyl]azetidin-2-one], the inhibition in vivo at 0.01 mg/kg by setting is: under setting [3], at least 30%; under setting [1], at least 30%. The inhibition in vivo at 0.1 mg/kg under setting [3] was at least 50% and the inhibition in vivo at 0.1 mg/kg under setting [4] was at least 20%.

Turning to `N#Cc1cncc(-c2ccc(N3C(=O)[C@H](SC[C@H](O)c4ccc(F)cc4)[C@H]3c3ccc(O)cc3O)cc2)c1` [Example 63, 5-(4-{(3R,4R)-3-[(2R)-2-(4-fluorophenyl)-2-hydroxyethylthio]-4-(2,4-dihydroxyphenyl)-2-oxoazetidinyl}phenyl)pyridine-3-carbonitrile], the inhibition in vivo at 0.01 mg/kg is at least 30% under setting [3], at least 30% under setting [1] and at least 30% under setting [2]. Moreover, the inhibition in vivo at 0.1 mg/kg under setting [1] is at least 50% and the inhibition in vivo at 0.1 mg/kg under setting [2] is at least 50%.

As for `N#Cc1ccc(-c2ccc(N3C(=O)[C@H](SC[C@H](O)c4ccc(Cl)cc4)[C@H]3c3ccc(O)cc3)cc2)cn1` [Example 60, 5-(4-{(3R,4R)-3-[(2R)-2-(4-chlorophenyl)-2-hydroxyethylthio]-4-(4-hydroxyphenyl)-2-oxoazetidinyl}phenyl)pyridine-2-carbonitrile], the inhibition in vivo at 0.1 mg/kg under setting [1] is at least 50% and the inhibition in vivo at 0.1 mg/kg under setting [4] is at least 20%.

Turning to `O=C1[C@H](SC[C@H](O)c2ccc(Cl)cc2)[C@@H](c2ccc(O)cc2O)N1c1ccc(-c2cccnc2)cc1` [Example 62, (3R,4R)-3-[(2R)-2-(4-chlorophenyl)-2-hydroxyethylthio]-4-(2,4-dihydroxyphenyl)-1-[4-(pyridin-3-yl)phenyl]azetidin-2-one], the inhibition in vivo at 0.1 mg/kg by setting is: under setting [1], at least 50%; under setting [2], at least 50%.

Consider `Cc1cc(O)ccc1[C@@H]1[C@@H](SC[C@H](O)c2ccc(F)cc2)C(=O)N1c1ccc(-c2cncc(C#N)c2)cc1` [Example 80, 5-(4-{(3R,4R)-3-[(2R)-2-(4-fluorophenyl)-2-hydroxyethylthio]-4-(4-hydroxy-2-methylphenyl)-2-oxoazetidinyl}phenyl)pyridine-3-carbonitrile], for which the inhibition in vivo at 0.1 mg/kg is, setting by setting: under setting [1], at least 50%; under setting [2], at least 50%.

`O=C1[C@H](SC[C@H](O)c2ccc(Cl)cc2O)[C@@H](c2ccc(O)cc2)N1c1ccc(-c2cccnc2)cc1` [Example 89, (3R,4R)-3-[(2R)-2-(4-chloro-2-hydroxyphenyl)-2-hydroxyethylthio]-4-(4-hydroxyphenyl)-1-[4-(pyridin-3-yl)phenyl]azetidin-2-one]: the inhibition in vivo at 0.1 mg/kg reads like this: under setting [1], at least 50%; under setting [2], at least 50%.

For the molecule `Cc1cncc(-c2ccc(N3C(=O)[C@H](SC[C@H](O)c4ccc(Cl)cc4)[C@H]3c3ccc(O)cc3O)cc2)c1` [Example 97, (3R,4R)-3-[(2R)-2-(4-chlorophenyl)-2-hydroxyethylthio]-4-(2,4-dihydroxyphenyl)-1-[4-(5-methylpyridin-3-yl)phenyl]azetidin-2-one], the inhibition in vivo at 0.1 mg/kg under setting [1] was at least 50% and the inhibition in vivo at 0.1 mg/kg under setting [2] is at least 50%.

`O=C1[C@H](SC[C@H](O)c2ccc(F)cc2)[C@@H](c2ccc(O)cc2O)N1c1ccc(-c2cncc(F)c2)cc1` [Example 73, (3R,4R)-3-[(2R)-2-(4-fluorophenyl)-2-hydroxyethylthio]-4-(2,4-dihydroxyphenyl)-1-[4-(5-fluoropyridin-3-yl)phenyl]azetidin-2-one]: under setting [2], the inhibition in vivo at 0.01 mg/kg was at least 30% and the inhibition in vivo at 0.1 mg/kg was at least 50%. In addition, the inhibition in vivo at 0.1 mg/kg under setting [1] was at least 50%.

For `N#Cc1cncc(-c2ccc(N3C(=O)[C@H](SC[C@H](O)c4ccc(Cl)cc4)[C@H]3c3ccc(O)cc3O)cc2)c1` [Example 65, 5-(4-{(3R,4R)-3-[(2R)-2-(4-chlorophenyl)-2-hydroxyethylthio]-4-(2,4-dihydroxyphenyl)-2-oxoazetidinyl}phenyl)pyridine-3-carbonitrile], the inhibition in vivo at 0.1 mg/kg runs as follows: under setting [1], at least 50%; under setting [2], at least 50%.

For the molecule `O=C1[C@H](SC[C@H](O)c2ccc(F)cc2)[C@@H](c2ccc(O)cc2O)N1c1ccc(-c2cncc(Cl)c2)cc1` [Example 92, (3R,4R)-3-[(2R)-2-(4-fluorophenyl)-2-hydroxyethylthio]-4-(2,4-dihydroxyphenyl)-1-[4-(5-chloropyridin-3-yl)phenyl]azetidin-2-one], the inhibition in vivo at 0.01 mg/kg by setting is: under setting [1], at least 30%; under setting [2], at least 30%. Besides, the inhibition in vivo at 0.1 mg/kg under setting [4] was at least 20%.

`CCNC(=O)c1cncc(-c2ccc(N3C(=O)[C@H](SC[C@H](O)c4ccc(Cl)cc4)[C@H]3c3ccc(O)cc3)cc2)c1` [Example 106, N-ethyl-5-(4-{(3R,4R)-3-[(2R)-2-(4-chlorophenyl)-2-hydroxyethylthio]-4-(4-hydroxyphenyl)-2-oxoazetidinyl}phenyl)pyridine-3-carboxamide]: under setting [1], the inhibition in vivo at 0.1 mg/kg was at least 50%.

Regarding `O=C1[C@H](SC[C@H](O)c2ccccc2F)[C@@H](c2ccc(O)cc2)N1c1ccc(-c2cccnc2)cc1` [Example 77, (3R,4R)-3-[(2R)-2-(2-fluorophenyl)-2-hydroxyethylthio]-4-(4-hydroxyphenyl)-1-[4-(pyridin-3-yl)phenyl]azetidin-2-one], under setting [4], the inhibition in vivo at 0.1 mg/kg was at least 20%.

The values above are taken from patent publication US20100125059A1, “1-BIARYLAZETIDINONE DERIVATIVE” (Teijin Pharma Limited, priority 2007, published 2010).
